Source: US20230203060A1 (GENFLEET THERAPEUTICS (SHANGHAI) INC., priority 2020, published 2023)
Where two headings read alike, the source gives them in different places.

Legend:
[1] = test system: KRAS G12C mutant NCI-H358 cells; experiment: Cell proliferation inhibition experiment, 3D spheroid, CellTiter-Glo, NCI-H358; type: cell-based, human; conditions: Homo sapiens, NCI-H358, 120 h, NCI-H358 (KRAS G12C mutant) 3D spheroid, 5 days with compound, CellTiter-Glo; read-out: H358 IC50
In short: (§1)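 3D spheroid format; 800 H358 / 400 A549 cells/well, 2% FBS. Cpd 3.16-fold series, 0.1% DMSO, 5 d. Readout CellTiter-Glo luminescence; IR% vs DMSO control and medium blank; 4-parameter IC50.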

[2] = test system: A549 cells (KRAS G12S mutant); experiment: Cell proliferation inhibition experiment, 3D spheroid, CellTiter-Glo, A549; type: cell-based, human; conditions: A549 (KRAS G12S mutant) 3D spheroid, 5 days with compound, CellTiter-Glo, read-out: A549 IC50
In short: as §1

SMILES | IC50 [1] | IC50 ([2]; Homo sapiens, A549, 120 h) | IC50 [2]
C=CC(=O)N1CCN2C(=O)c3c(N4C[C@@](C)(O)CC4(C)C)nc(-c4c(O)cccc4F)c(Cl)c3OC[C@H]2C1 (single isomer, unassigned) [Z243-1] | 0.6 nM | 3.1 µM | 
C=CC(=O)N1CCN2C(=O)c3c(N4CCN(C)C(C)C4C)nc(-c4c(O)cccc4F)c(Cl)c3OC[C@H]2C1 (stereo partly drawn) [Z369, (6aR)-8-acryloyl-4-chloro-3-(2-fluoro-6-hydroxyphenyl)-1-(2,3,4-trimethylpiperazin-1-yl)-6,6a,7,8,9,10-hexahydro-12H-pyrazino[2,1-c]pyrido[3,4-f][1,4]oxazepin-12-one] | 3.6 nM |  | 27.1 µM
C=CC(=O)N1CCN2C(=O)c3c(N4C[C@H](N(C)CCOC)CC4(C)C)nc(-c4c(O)cccc4F)c(Cl)c3OC[C@H]2C1 (single isomer, unassigned) [Z296-2] | 2.4 nM | 3.79 µM | 
C=CC(=O)N1CCN2C(=O)c3c(N4C[C@H](O)CC4(C)C)nc(-c4c(O)ccc(Cl)c4F)c(F)c3OC[C@H]2C1 (single isomer, unassigned) [Z340-2] | 26.7 nM | 3.17 µM | 
C=CC(=O)N1CCN2C(=O)c3c(N4C[C@@H](N(C)C)CC4(C)C)nc(-c4c(O)cccc4F)c(Cl)c3OC[C@H]2C1 (single isomer, unassigned) [Z324-1] | 1.3 nM | 2.85 µM | 
C=CC(=O)N1CCN2C(=O)c3c(N4C[C@@H](OC)C[C@@H]4C)nc(-c4c(O)cccc4F)c(F)c3OC[C@H]2C1 [Z359-1, (6aR)-8-actyloyl-4-fluoro-3-(2-fluoro-6-hydroxyphenyl)-1-((2S,4S)-4-methoxy-2-methylpyrrolidin-1-yl)-6,6a,7,8,9,10-hexahydro-12H-pyrazino[2,1-c]pyrido[3,4-f][1,4]oxazepin-12-one] | 8.3 nM | 12.2 µM | 
C=CC(=O)N1CCN2C(=O)c3c(N4CCN(CCOC)C[C@@H]4C)nc(-c4c(O)cccc4F)c(Cl)c3OC[C@H]2C1 [Z257a, (6aR)-8-acryloyl-4-chloro-3-(2-fluoro-6-hydroxyphenyl)-1-((S)-4-(2-methoxyethyl)-2-methylpiperazin-1-yl)-6,6a,7,8,9,10-hexahydro-12H-pyrazino[2,1-c]pyrido[3,4-f][1,4]oxazepin-12-one] | 4 nM | 28.2 µM | 
C=CC(=O)N1CCN2C(=O)c3c(N4C[C@H](N5CCOCC5)CC4(C)C)nc(-c4c(O)cccc4F)c(Cl)c3OC[C@H]2C1 (single isomer, unassigned) [Z297-1] | 1 nM | 7 µM | 
C=CC(=O)N1CCN2C(=O)c3c(N4C[C@H](OC)CC4(C)C)nc(-c4c(O)cccc4F)c(Cl)c3OC[C@H]2C1 (single isomer, unassigned) [Z244-2] | 0.5 nM | 2.08 µM | 
C=CC(=O)N1CCN2C(=O)c3c(N4C[C@H](O)[C@H]4C)nc(-c4c(O)cccc4F)c(Cl)c3OC[C@H]2C1 (single isomer, unassigned) [Z102-4] | 15.4 nM |  | 
C=CC(=O)N1CCN2C(=O)c3c(N4CC[C@@H]5C[C@@H]54)nc(-c4c(O)cccc4F)c(Cl)c3OC[C@H]2C1 (single isomer, unassigned) [Z39-2] | 7.8 nM |  | 
C=CC(=O)N1CCN2C(=O)c3c(N4CCOCC4)nc(-c4nc(N)cc(C)c4C(F)(F)F)c(Cl)c3OC[C@H]2C1 [Z314] | 6 nM | > 30 µM | 
C=CC(=O)N1CCN2C(=O)c3c(N4CCC(C)(C)C4)nc(-c4c(O)cccc4F)c(Cl)c3OC[C@H]2C1 [Z21, (6aR)-8-acryloyl-4-chloro-1-(3,3-dimethylpyrrolidin-1-yl)-3-(2-fluoro-6-hydroxyphenyl)-6,6a,7,8,9,10-hexahydro-12H-pyrazino[2,1-c]pyrido[3,4-f][1,4]oxazepin-12-one] | 29 nM | > 20 µM | 
C=CC(=O)N1CCN2C(=O)c3c(N4CCN(C)[C@H](C)[C@@H]4C)nc(-c4c(O)cccc4F)c(Cl)c3OC[C@H]2C1 (single isomer, unassigned) [Z308a-1] | 7.1 nM | 14.4 µM | 
C=CC(=O)N1CCN2C(=O)c3c(N4CC[C@@H](OC)C4(C)C)nc(-c4c(O)cccc4F)c(F)c3OC[C@H]2C1 (single isomer, unassigned) [Z327-1] | 4 nM | 7.93 µM | 
C=CC(=O)N1CCN2C(=O)c3c(N4CC(N5CCOCC5)CC4(C)C)nc(-c4c(O)cccc4F)c(Cl)c3OC[C@H]2C1 (stereo partly drawn) [Z344, (6aR)-8-acryloyl-4-chloro-1-((2,2-dimethyl-4-morpholinopyrrolidin-1-yl))-3-(2-fluoro-6-hydroxyphenyl)-6,6a,7,8,9,10-hexahydro-12H-pyrazino[2,1-c]pyrido[3,4-f][1,4]oxazepin-12-one] | 1.3 nM | 3.72 µM | 

SMILES | IC50 [1] | IC50 ([2]; Homo sapiens, A549, 120 h) | IC50 [2]
C=CC(=O)N1CCN2C(=O)c3c(N4CC[C@H](N(C)C)C4(C)C)nc(-c4c(O)cccc4F)c(Cl)c3OC[C@H]2C1 (single isomer, unassigned) [Z360-2] | 3 nM | > 10 µM | 
C=CC(=O)N1CCN2C(=O)c3c(N4CCN(CCOC)C(C)(C)C4)nc(-c4c(O)cccc4F)c(Cl)c3OC[C@H]2C1 [Z321, (6aR)-8-acryloyl-4-chloro-3-(2-fluoro-6-hydroxyphenyl)-1-(4-(2-methoxyethyl)-3,3-dimethylpiperazin-1-yl)-6,6a,7,8,9,10-hexahydro-12H-pyrazino[2,1-c]pyrido[3,4-f][1,4]oxazepin-12-one] | 4.5 nM |  | 
C=CC(=O)N1CCN2C(=O)c3c(N4CC(OC)CC4(C)C)nc(-c4c(O)cccc4F)c(Cl)c3OC[C@H]2C1 (stereo partly drawn) [Z244, (6aR)-8-acryloyl-4-chloro-3-(2-fluoro-6-hydroxyphenyl)-1-(4-methoxy-2,2-dimethylpyrrolidin-1-yl)-12-oxo-6,6a,7,8,9,10-hexahydro-12H-pyrazino[2,1-c]pyrido[3,4-f][1,4]oxazepin-12-one] | 2.9 nM |  | 
C=CC(=O)N1CCN2C(=O)c3c(N4CCO[C@](C)(COC)C4)nc(-c4c(O)cccc4F)c(Cl)c3OC[C@H]2C1 (single isomer, unassigned) [Z332-1] | 16 nM |  | 
C=CC(=O)N1CCN2C(=O)c3c(N4C[C@@H](O)CC4(C)C)nc(-c4c(F)ccc(F)c4O)c(F)c3OC[C@H]2C1 (single isomer, unassigned) [Z449-1] | 7 nM | > 30 µM | 
C=CC(=O)N1CCN2C(=O)c3c(N4CCN(C(C)=O)C(C)(C)C4)nc(-c4c(O)cccc4F)c(Cl)c3OC[C@H]2C1 [Z315, (6aR)-1-(4-acetyl-3,3-dimethylpiperazin-1-yl)-8-acryloyl-4-chloro-3-(2-fluoro-6-hydroxyphenyl)-6,6a,7,8,9,10-hexahydro-12H-pyrazino[2,1-c]pyrido[3,4-f][1,4]oxazepin-12-one] | 5 nM | > 30 µM | 
C=CC(=O)N1CCN2C(=O)c3c(N4C[C@H](CO)CC4(C)C)nc(-c4c(O)cccc4F)c(Cl)c3OC[C@H]2C1 (single isomer, unassigned) [Z240-2] | 1.9 nM | > 10 µM | 
C=CC(=O)N1CCN2C(=O)c3c(N4CCN(C5COC5)C[C@@H]4C)nc(-c4c(O)cccc4F)c(Cl)c3OC[C@H]2C1 (single isomer, unassigned) [Z239-1] | 15 nM |  | 
C=CC(=O)N1CCN2C(=O)c3c(N4CCN(C5CC5)C[C@@H]4C)nc(-c4c(O)cccc4F)c(Cl)c3OC[C@H]2C1 [Z312-1, (6aR)-8-acryloyl-4-chloro-1-((S)-4-cyclopropyl-2-methylpiperazin-1-yl)-3-(2-fluoro-6-hydroxyphenyl)-6,6a,7,8,9,10-hexahydro-12H-pyrazino[2,1-c]pyrido[3,4-f][1,4]oxazepin-12-one] | 13.5 nM |  | 
C=CC(=O)N1CCN2C(=O)c3c(N4CC(CO)CC4(C)C)nc(-c4c(O)cccc4F)c(Cl)c3OC[C@H]2C1 (stereo partly drawn) [Z240, (6aR)-8-acryloyl-4-chloro-3-(2-fluoro-6-hydroxyphenyl)-1-(4-(hydroxymethyl)-2,2-dimethylpyrrolidin-1-yl)-6,6a,7,8,9,10-hexahydro-12H-pyrazino[2,1-c]pyrido[3,4-f][1,4]oxazepin-12-one] | 2.4 nM |  | 
C=CC(=O)N1CCN2C(=O)c3c(N4C[C@H](N(C)C)C[C@@H]4C)nc(-c4c(O)cccc4F)c(Cl)c3OC[C@H]2C1 [Z237-1, (6aR)-8-acryloyl-4-chloro-1-((2S,4R)-4-(dimethylamino)-2-methylpyrrolidin-1-yl)-3-(2-fluoro-6-hydroxyphenyl)-6,6a,7,8,9,10-hexahydro-12H-pyrazino[2,1-c]pyrido[3,4-f][1,4]oxazepin-12-one] | 14.6 nM |  | 
C=CC(=O)N1CCN2C(=O)c3c(N4CC(O)CC4(C)C)nc(-c4c(O)cccc4F)c(C)c3OC[C@H]2C1 (single isomer, unassigned) [Z336-2] | 5 nM |  | 
C=CC(=O)N1CCN2C(=O)c3c(N4CC(C)(O)CC4(C)C)nc(-c4c(O)cccc4F)c(Cl)c3OC[C@H]2C1 (stereo partly drawn) [Z243, (6aR)-8-acryloyl-4-chloro-3-(2-fluoro-6-hydroxyphenyl)-1-(4-hydroxy-2,2,4-trimethylpyrrolidin-1-yl)-6,6a,7,8,9,10-hexahydro-12H-pyrazino[2,1-c]pyrido[3,4-f][1,4]oxazepin-12-one] | 2.2 nM |  | 
C=CC(=O)N1CCN2C(=O)c3c(N4CCC(O)C4(C)C)nc(-c4c(O)cccc4F)c(Cl)c3OC[C@H]2C1 (stereo partly drawn) [Z241, (6aR)-8-acryloyl-1-(3-hydroxy-2,2-dimethylpyrrolidin-1-yl)-4-chloro-3-(2-fluoro-6-hydroxyphenyl)-6,6a,7,8,9,10-hexahydro-12H-pyrazino[2,1-c]pyrido[3,4-f][1,4]oxazepin-12-one] | 2.6 nM |  | 
C=CC(=O)N1CCN2C(=O)c3c(N4Cc5cn(C)nc5C4(C)C)nc(-c4c(O)cccc4F)c(Cl)c3OC[C@H]2C1 [Z310, (6aR)-8-acryloyl-1-(2,6,6-trimethylpyrrolo[3,4-c]pyrazol-5(2H,4H,6H)-yl)-4-chloro-3-(2-fluoro-6-hydroxyphenyl)-6,6a,7,8,9,10-hexahydro-12H-pyrazino[2,1-c]pyrido[3,4-f][1,4]oxazepin-12-one] | 10.6 nM |  | 
